# Assay results taken from PubChem BioAssay (NCI).
#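 All cell lines were grown in 96-well plates and treated with compound for 48 hours. TGI marks complete inhibition of growth.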
# Assays:
# Assay in all cases: DTP human tumour cell line panel, 48 h
# OVCAR-4 ovarian = test system: OVCAR-4 ovarian
# HOP-92 NSCLC = test system: HOP-92 NSCLC
# DU-145 prostate = test system: DU-145 prostate
# HOP-62 NSCLC = test system: HOP-62 NSCLC
# RPMI-8226 leukemia = test system: RPMI-8226 leukemia
# A549 NSCLC = test system: A549 NSCLC
# SR leukemia = test system: SR leukemia
SMILES,TGI (OVCAR-4 ovarian) [µM],TGI (HOP-92 NSCLC) [µM],TGI (DU-145 prostate) [µM],TGI (HOP-62 NSCLC) [µM],TGI (RPMI-8226 leukemia) [µM],TGI (A549 NSCLC) [µM],TGI (SR leukemia) [µM]
Cc1ccc(S(=O)(=O)n2ccn3c(=O)cc(C)nc23)cc1,> 10,> 10,> 10,> 10,> 10,> 10,> 10
C=CCSc1nn(CC=C)cc2ncnc1-2,,,> 100,> 100,> 100,> 100,> 100
CC(O[Si](C)(C)C(C)(C)C)[C@H](NC(=O)OCC(Cl)(Cl)Cl)C(=O)O (some centres not stated),> 100,,> 100,> 100,> 100,> 100,> 100
O=C(c1nsc(Cl)c1Cl)N1CCCCC1,> 100,,> 100,> 100,> 100,> 100,> 100
COc1cc2c(cc1OC)-c1cc3ccccc3c(=O)n1CCC2,> 100,68.3,> 66,> 75.3,29.4,> 100,
CC(=O)CN=C(C)NNc1ccc([N+](=O)[O-])cc1[N+](=O)[O-],> 100,,> 100,> 100,> 100,> 100,> 100
CC1C(c2ccccc2O)c2cc3c(cc2OC1N1CCCC1)OCO3 (configuration not stated),,69.3,> 100,49.8,57.5,> 100,54.2
CC(C)C1OCC(CO)CO1 (configuration not stated),> 100,> 100,> 100,> 100,> 100,> 100,> 100
COc1cc(CNC(=O)CCCCCCCC/C=C/Br)ccc1O,> 10,> 10,> 10,> 10,> 10,> 10,> 10
CC(C)(C)SC1=CCC[C@@H](P(=O)(c2ccccc2)c2ccccc2)[C@@H]2CCC[C@@H]12,31.4,28.9,39.8,31.8,41.9,35.2,43.6
COc1cc(Cn2c3c(c4cc(O)ccc42)C(=O)c2ccccc2C3=O)cc(OC)c1,33.6,19.7,60.6,8.78,3.73,49.6,25.2
COC(=O)[C@]1(c2cc3ccccc3n2S(=O)(=O)c2ccccc2)CC2CCC1NC2 (some centres not stated),48.3,24.4,30.4,34,23.1,25.2,19.2
Cc1c(-c2ccccc2)n(C)c2cn[nH]c(=O)c12,,> 100,> 100,80.3,> 100,> 100,70.9
CCOC(=O)Cn1nc2ccc(Nc3nc4ccccc4nc3C(=O)OCC)cc2n1,> 100,> 100,> 100,> 100,> 100,> 100,> 100
Cc1ccc(C2SC(N)=Nc3c2c(C)nn3C(=O)c2ccncc2)cc1 (configuration not stated),> 10,> 10,> 10,> 10,> 10,> 10,> 10
COC(=O)[C@]1(c2cc3ccccc3[nH]2)CC2CN(CC(=O)N(C)OC)C1C1OC(C)(C)OC21 (some centres not stated),> 100,> 100,> 100,> 100,74,> 100,
COc1cc(/C=C2\NC(=O)N(/C=C3\C(=O)Oc4ccccc4C3=O)C2=O)ccc1O,> 100,> 100,> 100,> 100,> 100,> 100,
CS(=O)(=O)C(=Cc1ccccc1Cl)S(C)(=O)=O,> 100,> 100,> 100,> 100,> 100,> 100,> 100
O=[N+]([O-])C(=C1Nc2ccccc2N1)C(Cl)=C(Cl)Cl,> 100,> 100,> 100,> 100,> 100,> 100,> 100
COC(=O)C(Cc1ccccc1)NS(=O)(=O)c1ccc(-c2c3nc(c(-c4ccc(S(=O)(=O)NC(Cc5ccccc5)C(=O)OC)cc4)c4ccc([nH]4)c(-c4ccc(S(=O)(=O)NC(Cc5ccccc5)C(=O)OC)cc4)c4nc(c(-c5ccc(S(=O)(=O)NC(Cc6ccccc6)C(=O)OC)cc5)c5ccc2[nH]5)C=C4)C=C3)cc1 (configuration not stated),> 100,> 100,> 100,> 100,> 100,> 100,> 100
O=[N+]([O-])c1cc(Cl)ccc1S(=O)(=O)c1ccccc1,> 100,> 100,> 100,> 100,> 100,> 100,
CC(C)CCNC(=O)c1ccc(CNC(=O)/C=C/c2ccc(-c3ccccc3[N+](=O)[O-])o2)cc1,55.3,,> 100,60.8,> 100,> 100,> 100
CCCCc1ccc(Nc2nc(Cl)c3[nH]cnc3n2)cc1,> 100,26.3,61.8,27.8,> 100,> 100,> 100
CCCNc1[nH]c(C(C)=O)c(N)c1C(=S)Nc1ccccc1,74.5,> 100,> 100,> 100,,> 100,> 100
CC[n+]1[b-](C(C)(C)C)n(/N=C(\C)C(C)(C)C)[b-](C(C)(C)C)[n+]1CC,> 100,,,> 100,,> 100,56.8
Cc1sc(N=Nc2c(O)[nH]c3ccccc23)nc1-c1ccccc1,42.3,45.2,24.8,33.1,,32.6,
CN1c2ccccc2C2c3c(O)ccc(O)c3C=C([N+](=O)[O-])C21 (configuration not stated),2.81,5.84,,5.96,,3.57,> 24.8
Cn1cc(-c2ccc(CCOC3CCCCO3)cc2)c2c(C#N)cccc21 (configuration not stated),> 100,> 100,> 100,> 100,> 100,> 100,> 100
Cc1cc2c3c(ccc4ncc(c43)CN2c2ccc(NS(C)(=O)=O)cc2)[nH]1,> 100,92.2,> 100,46.1,55.3,88.5,
